Values of other authors as cited in US7312209B2, “Acridone inhibitors of IMPDH enzyme” (Bristol-Myers Squibb Company, priority 2001, dated 2007).

Tests used:
[1] = tested on: antigen-specific T lymphocyte responses; conditions: in combination with Rol 10^−7 M
[2] = tested on: IL-2, IL-4, and IFN; conditions: RT-PCR; Rol 10^−7 M, MPA 10^−8 M
[3] = tested on: IMPDH types I and II; conditions: RT-PCR; low and high concentrations

| SMILES | synergistic effect on inhibition of antigen-induced proliferation [1] | downregulation in the generation of proinflammatory cytokines (IL-2, IL-4, IFN) [2] | gene expression for IMPDH types I and II [3] |
| --- | --- | --- | --- |
| C=CC[C@@H]1/C=C(\C)C[C@H](C)C[C@H](OC)[C@H]2O[C@@](O)(C(=O)C(=O)N3CCCC[C@H]3C(=O)O[C@H](/C(C)=C/[C@@H]3CC[C@@H](O)[C@H](OC)C3)[C@H](C)[C@@H](O)CC1=O)[C@H](C)C[C@@H]2OC [tacrolimus] | little or no synergistic effect |  |  |
| COc1c(C)c2c(c(O)c1C/C=C(\C)CCC(=O)O)C(=O)OC2 [MPA, mycophenolic acid] | marked synergistic effect | no significant downregulation | remained unaffected |
| COc1ccc(C2CNC(=O)C2)cc1OC1CCCC1 (stereo not drawn) [Rol, 4-[3-(cyclopentyloxy)-4-methoxy-phenyl]-2-pyrrolidinone] |  | no significant downregulation | remained unaffected |
